# From patent US20140377219A1, “HIV INHIBITORS” (New york Blood Center, Inc., priority 2011, published 2014)
# Counter-ions that a name gives are not always drawn. Like-named read-outs stand apart in the source and are kept apart here.
# Experiments:
# [1] = system: laboratory-adapted HIV-1 IIIB strain; settings: read-out: MT-2 Cells IC50 (μM ± SD); multi-cycle assay, MT-2 cells, HIV-1 IIIB
# Procedure: In brief, 1×10^4 MT-2 cells were infected with HIV-1 at 100 TCID50 (50% tissue culture infective dose) (0.01MOI) in 200 μl medium in the presence or absence of small molecules at graded concentrations and incubated overnight. The culture supernatants were then removed and replaced with fresh media. On the fourth day post-infection, 100 μl of culture supernatants were collected from each well, mixed with equal volume of 5% Triton X-100 and tested for p24 antigen by sandwich-ELISA. The percent inhibition of p24 production and IC50 values were calculated by the GraphPad Prism software (GraphPad Software Inc.).
# [2] = system: TZM-bl cells; test: Cytotoxicity in TZM-bl cells (XTT); type: cell-based
# Procedure: The cytotoxicity of small molecules in TZM-bl cells was measured by a colorimetric method using XTT (sodium 3′-(1-(phenylamino)-carbonyl)-3,4-tetrazolium-bis(4-methoxy-6-nitro)benzenesulfonic acid hydrate), a light yellowish tetrazolium dye. Briefly, 100 μl of a compound at graded concentrations was added to equal volume of cells (10^5/ml) in wells of 96-well plates followed by incubation at 37° C. for 3 days and addition of XTT (PolySciences, Inc., Warrington, Pa.).
# [3] = system: MT-2 cells; test: Cytotoxicity in MT-2 cells (XTT); type: cell-based
# Procedure: Cytotoxicity of small molecules in MT-2 cells and PBMC was measured by the XTT ((sodium 3′-(1-(phenylamino)-carbonyl)-3,4-tetrazolium-bis(4-methoxy-6-nitro)benzene-sulfonic acid hydrate)) method. Briefly, for MT-2 cells, 100 μl of a small molecule at graded concentrations was added to an equal volume of cells (10^5 cells/ml) in 96-well plates followed by incubation at 37° C. for four days, which ran parallel with the neutralization assay in MT-2 (except medium was added instead of virus). In the case of PBMC, 5×10^5 cells/ml was used and the cytotoxicity was measured after seven days. […] The percentage cytotoxicity and the CC50 values were calculated as described above.
# [4] = TZM-bl cells, XTT, 3 days, read-out: TZM-bl cells CC50 (μM ± SD)
# [5] = MT-2 cells, XTT, four days, read-out: MT-2 Cells CC50
# [6] = at the dose given as CC50 bound
SMILES,IC50 [1] [µM],CC50 [2] [µM],CC50 [3] [µM],"% toxicity at that dose (number in parenthesis), MT-2 cells [3] [%]","CC50 [2, 4] [µM]","CC50 [3, 5] [µM]","% toxicity at that dose (number in parenthesis), TZM-bl cells [2, 6] [%]","% toxicity at that dose (number in parenthesis), TZM-bl cells [2]","% toxicity at that dose (number in parenthesis), MT-2 cells [3, 6] [%]"
"Cc1nc(C(NC(=O)C(=O)Nc2ccc(Cl)cc2)C2CCCNC2)sc1CO (centres unmarked) [Compound 7, N^1-(4-chlorophenyl)-N^2-((5-(hydroxymethyl)-4-methylthiazol-2-yl)(piperidin-3-yl)methyl)oxalamide.2HCl]",12 ± 1.1,~60.2,> 81,,,,,,
"Cc1nc(C(NC(=O)C(=O)Nc2ccc(Cl)cc2)C2CCNCC2)sc1CO (centres unmarked) [Compound 8, N^1-(4-chlorophenyl)-N^2-((5-(hydroxymethyl)-4-methylthiazol-2-yl)(piperidin-4-yl)methyl)oxalamide.2HCl]",29.8 ± 3.5,~81,> 81,,,,,,
"Cc1nc(C(NC(=O)C(=O)Nc2ccc(Cl)cc2)C2CCCCN2)sc1CCO.O=CO (centres unmarked) [Compound 9, N^1-(4-chlorophenyl)-N^2-((5-(2-hydroxyethyl)-4-methylthiazol-2-yl)(piperidin-2-yl)methyl)oxalamide.HCOOH]",4.2 ± 0.2,,> 62,0,,,,,
"Cc1nc(C(NC(=O)C(=O)Nc2ccc(Cl)cc2)C2CCCNC2)sc1CCO (centres unmarked) [Compound 10, N^1-(4-chlorophenyl)-N^2-((5-(2-hydroxyethyl)-4-methylthiazol-2-yl)(piperidin-3-yl)methyl)oxalamide.2HCl]",13.1 ± 2.4,~59.4,> 78.5,,,,,,
"Cc1nc(C(NC(=O)C(=O)Nc2ccc(Cl)cc2)C2CCNCC2)sc1CCO (centres unmarked) [Compound 11, N^1-(4-chlorophenyl)-N^2-((5-(2-hydroxyethyl)-4-methylthiazol-2-yl)(piperidin-4-yl)methyl)oxalamide.2HCl]",30.5 ± 3.4,~85.4,> 78.5,,,,,,
"Cc1nc(C(NC(=O)C(=O)Nc2ccc(Cl)cc2)C2CCCCN2C)sc1CCO (centres unmarked) [Compound 12, N^1-(4-chlorophenyl)-N^2-((5-(2-hydroxyethyl)-4-methylthiazol-2-yl)(1-methylpiperidin-2-yl)methyl)oxalamide]",,,,,36 ± 3.3,,,,
"Cc1nc(C(NC(=O)C(=O)Nc2ccc(Cl)cc2)C2CCCN2)sc1CO (centres unmarked) [Compound 14, N^1-(4-chlorophenyl)-N^2-((5-(hydroxymethyl)-4-methylthiazol-2-yl)(pyrrolidin-2-yl)methyl)oxalamide.HCOOH]",15.4 ± 2.6,12.4 ± 0.7,~45,,,,,,
"Cc1nc(C(NC(=O)C(=O)Nc2ccc(Cl)cc2)C2CCCN2)sc1CCO (centres unmarked) [Compound 15, N^1-(4-chlorophenyl)-N^2-((5-(2-hydroxyethyl)-4-methylthiazol-2-yl)(pyrrolidin-2-yl)methyl)oxalamide.HCOOH]",16.2 ± 1.7,~4.9,~42,,,,,,
"CNCC(NC(=O)C(=O)Nc1ccc(Cl)cc1)c1nc(C)c(CCO)s1 (centres unmarked) [Compound 16, N^1-(4-chlorophenyl)-N^2-(1-(5-(2-hydroxyethyl)-4-methylthiazol-2-yl)-2-(methylamino)ethyl)oxalamide.2HCl]",24.3 ± 2.2,16.6 ± 1,> 43,,,,,,
"COC(=O)[C@@H]1C[C@@H](NC(=O)C(=O)Nc2ccc(Cl)cc2)[C@H](c2ccccc2)N1 [Compound 18, (2S,4R,5S)-methyl 4-(2-(4-chlorophenylamino)-2-oxoacetamido)-5-phenyl pyrrolidine-2-carboxylate]",> 24.9,,,,> 99.6,> 99.6,,,
"Cc1nc(C(NC(=O)C(=O)Nc2ccc(C(F)(F)F)cc2)C2CCCCN2)sc1CO.Cl.Cl (centres unmarked) [Compound 20, N^1-((5-(hydroxymethyl)-4-methylthiazol-2-yl)(piperidin-2-yl)methyl)-N^2-(4-(trifluoromethyl)phenyl)oxalamide.2HCl]",4.6 ± 0.3,,,,> 75.5,> 75.5,10,,
"Cc1nc(C(NC(=O)C(=O)Nc2ccc(F)cc2F)C2CCCCN2)sc1CO (centres unmarked) [Compound 21, N^1-(2,4-difluorophenyl)-N^2-((5-(hydroxymethyl)-4-methylthiazol-2-yl)(piperidin-2-yl)methyl)oxalamide.HCl]",~110,,,,> 87,> 110,,,
"Cc1nc(C(NC(=O)C(=O)Nc2ccc(F)c(F)c2)C2CCCCN2)sc1CO.Cl (centres unmarked) [Compound 22, N^1-(3,4-difluorophenyl)-N^2-((5-(hydroxymethyl)-4-methylthiazol-2-yl)(piperidin-2-yl)methyl)oxalamide.HCl]",14 ± 3.8,,,,> 87,> 87,0,,
"CC(=O)c1ccc(NC(=O)C(=O)NC(c2nc(C)c(CO)s2)C2CCCCN2)cc1 (centres unmarked) [Compound 23, N^1-(4-acetylphenyl)-N^2-((5-(hydroxymethyl)-4-methylthiazol-2-yl)(piperidin-2-yl)methyl)oxalamide.HCl]",~107,> 86,> 107,,,,,,
"Cc1nc(C(NC(=O)C(=O)Nc2ccc(F)c(Cl)c2)C2CCCCN2)sc1CO.Cl.Cl (centres unmarked) [Compound 24, N^1-(3-chloro-4-fluorophenyl)-N^2-((5-(hydroxymethyl)-4-methylthiazol-2-yl)(piperidin-2-yl)methyl)oxalamide.2HCl]",9.5 ± 1.4,> 77.8,> 77.8,,,,,>77.8 (0%),
"Cc1nc(C(NC(=O)C(=O)Nc2ccc(F)cc2)C2CCCCN2)sc1CO.Cl (centres unmarked) [Compound 25, N^1-(4-fluorophenyl)-N^2-((5-(hydroxymethyl)-4-methylthiazol-2-yl)(piperidin-2-yl)methyl)oxalamide.HCl]",48 ± 5.5,> 90,> 113,,,,0,,
"Cc1ccc(NC(=O)C(=O)NC(c2nc(C)c(CO)s2)C2CCCCN2)c(F)c1 (centres unmarked) [Compound 26, N^1-(2-fluoro-4-methylphenyl)-N^2-((5-(hydroxymethyl)-4-methylthiazol-2-yl)(piperidin-2-yl)methyl)oxalamide.HCl]",~66,,,,> 88,> 109,,,
"Cc1nc(C(NC(=O)C(=O)NC2CCCCCC2)C2CCCCN2)sc1CO (centres unmarked) [Compound 29, N^1-cycloheptyl-N^2-((5-(hydroxymethyl)-4-methylthiazol-2-yl)(piperidin-2-yl)methyl)oxalamide.HCl]",39.3 ± 5,,,,> 90,> 90,,,
"Cc1nc(C(NC(=O)C(=O)Nc2ccc(Cl)cc2)C2CCCCN2)sc1CCO.O=CO (centres unmarked) [Compound 30, N^1-(4-chlorophenyl)-N^2-((5-(2-hydroxyethyl)-4-methylthiazol-2-yl)(piperidin-2-yl)methyl)oxalamide.HCOOH]",4.2 ± 0.3,,,,32.8 ± 0.6,> 62,,,0
"Cc1nc(C(NC(=O)C(=O)Nc2ccc(C(F)(F)F)cc2)C2CCCCN2)sc1CCO.Cl.Cl (centres unmarked) [Compound 31, N^1-((5-(2-hydroxyethyl)-4-methylthiazol-2-yl)(piperidin-2-yl)methyl)-N^2-(4-(trifluoromethyl)phenyl)oxalamide.2HCl]",17.4 ± 5.7,,,,> 74,> 39,35,,
"Cc1nc(C(NC(=O)C(=O)Nc2ccc(F)cc2F)C2CCCCN2)sc1CCO (centres unmarked) [Compound 32, N^1-(2,4-difluorophenyl)-N^2-((5-(2-hydroxyethyl)-4-methylthiazol-2-yl)(piperidin-2-yl)methyl)oxalamide.HCl]",> 105,,> 105,,> 84,,,,
"Cc1nc(C(NC(=O)C(=O)Nc2ccc(F)c(F)c2)C2CCCCN2)sc1CCO.Cl.Cl (centres unmarked) [Compound 33, N^1-(3,4-difluorophenyl)-N^2-((5-(2-hydroxyethyl)-4-methylthiazol-2-yl)(piperidin-2-yl)methyl)oxalamide.2HCl]",24.1 ± 4.6,,,,> 78.2,> 78.2,10,,
"CC(=O)c1ccc(NC(=O)C(=O)NC(c2nc(C)c(CCO)s2)C2CCCCN2)cc1 (centres unmarked) [Compound 34, N^1-(4-acetylphenyl)-N^2-((5-(2-hydroxyethyl)-4-methylthiazol-2-yl)(piperidin-2-yl)methyl)oxalamide.2HCl]",24.5 ± 1.5,> 77.3,> 48.3,,,,,,
"Cc1nc(C(NC(=O)C(=O)Nc2ccc(F)c(Cl)c2)C2CCCCN2)sc1CCO.Cl.Cl (centres unmarked) [Compound 35, N^1-(3-chloro-4-fluorophenyl)-N^2-((5-(2-hydroxyethyl)-4-methylthiazol-2-yl)(piperidin-2-yl)methyl)oxalamide.2HCl]",19.5 ± 1.8,> 75.8,~94.7,,,,,>75.8 (20%),
"Cc1nc(C(NC(=O)C(=O)Nc2ccc(F)cc2)C2CCCCN2)sc1CCO (centres unmarked) [Compound 36, N^1-(4-fluorophenyl)-N^2-((5-(2-hydroxyethyl)-4-methylthiazol-2-yl)(piperidin-2-yl)methyl)oxalamide.HCl]",,> 88,~109,,,,,,
"Cc1ccc(NC(=O)C(=O)NC(c2nc(C)c(CCO)s2)C2CCCCN2)c(F)c1 (centres unmarked) [Compound 37, N^1-(2-fluoro-4-methylphenyl)-N^2-((5-(2-hydroxyethyl)-4-methylthiazol-2-yl)(piperidin-2-yl)methyl)oxalamide.2HCl]",45.8 ± 3.5,,,,> 78.8,> 78.8,,,
